Laboratory results: US20260365670A1, “EGFR INHIBITORS AND USES THEREOF” (DIZAL (JIANGSU) PHARMACEUTICAL CO., LTD., priority 2022, published 2026)
Read-outs that look alike come from different tables or passages of the source.

Legend:
[1] = molecular target: T1, EGFR wild type (Homo sapiens, UniProt P00533); test: Inhibition of EGFR wild type biochemical enzymatic activity (HTRF); conditions: EGFR WT, 1 mM ATP, 1 h, room temperature, read-out: IC50 (nM) @WT
T1 construct: purchased Carna Bio
Outline: (§1)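 Each enzyme was first added to plates holding compound. The reaction was then started with ATP (1 mM) and peptide substrate (1 μM). It was stopped after 1 h at room temperature with EDTA detection reagents and read at 615/665 nm to derive IC50s.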

[2] = molecular target: T2, EGFR L858R/T790M (Homo sapiens, UniProt P00533, L858R/T790M); test: Inhibition of EGFR L858R/T790M biochemical enzymatic activity (HTRF); conditions: EGFR L858R-T790M, 1 mM ATP, 1 h, room temperature, read-out: IC50 (nM) @L858R-T790M
T2 construct: purchased Carna Bio
Outline: as §1

[3] = system: Ba/F3 cells expressing EGFR mutations; test: Cell proliferation assay, Ba/F3 cells expressing EGFR mutations (CellTiter-Glo, 72 hours); type: cell-based; conditions: CellTiter-Glo
Outline: (§2)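 Ba/F3 cells (5000/well) and PC-9 cells (500/well, RPMI1640 with 10% FBS) were plated overnight and then dosed with a compound concentration series. Viable cells were read at day 0 (G0) and after treatment (G3). GI50 came from curve fits of G0-corrected proliferation relative to DMSO.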

[4] = system: PC-9; test: Cell proliferation assay, PC-9 cells (CellTiter-Glo, 72 hours); type: cell-based; conditions: PC9 cells, CellTiter-Glo, read-out: PC9 GI50
Outline: as §2

[5] = molecular target: T3, EGFR Exon19Del (Homo sapiens, UniProt P00533, DEL746-750); test: Inhibition of EGFR Exon19Del biochemical enzymatic activity (HTRF); conditions: EGFR Del19, 1 mM ATP, 1 h, room temperature, read-out: IC50 @Del19
T3 construct: purchased Carna Bio
Outline: as §1

[6] = molecular target: T4, EGFR Exon19Del/T790M (Homo sapiens, UniProt P00533, DEL746-750/T790M); test: Inhibition of EGFR Exon19Del/T790M biochemical enzymatic activity (HTRF); conditions: EGFR Del19-T790M, 1 mM ATP, 1 h, room temperature, read-out: IC50 (nM) @Del19-T790M
T4 construct: purchased Carna Bio
Outline: as §1

[7] = molecular target: T5, EGFR (C797S L858R) (Homo sapiens, UniProt P00533, C797S/L858R); test: Inhibition of EGFR (C797S L858R) biochemical enzymatic activity (HTRF); conditions: EGFR L858-C797S, 1 mM ATP, 1 h, room temperature, read-out: IC50 (nM) @L858-C797S
T5 construct: purchased signalchem
Outline: as §1

[8] = molecular target: T6, EGFR[T790M/C797S/L858R] (Homo sapiens, UniProt P00533, C797S/L858R/T790M); test: Inhibition of EGFR[T790M/C797S/L858R] biochemical enzymatic activity (HTRF); conditions: EGFR T790M-C797S-L858R, 1 mM ATP, 1 h, room temperature, read-out: IC50 (nM) @T790M- C797S - L858R
T6 construct: purchased Carna Bio
Outline: as §1

[9] = molecular target: T7, EGFR L858R (Homo sapiens, UniProt P00533, L858R); test: Inhibition of EGFR L858R biochemical enzymatic activity (HTRF); conditions: 1 mM ATP, 1 h, room temperature, read-out: IC50 (nM) @L858R
T7 construct: purchased Carna Bio
Outline: as §1

[10] = molecular target: T8, EGFR[T790M/C797S/d746-750] (Homo sapiens, UniProt P00533, C797S/DEL746-750/T790M); test: Inhibition of EGFR[T790M/C797S/d746-750] biochemical enzymatic activity (HTRF); conditions: EGFR T790M-C797S-Del19, 1 mM ATP, 1 h, room temperature, read-out: IC50 (nM) @T790M - C797S - Del19
T8 construct: purchased Carna Bio
Outline: as §1

[11] = system: A-431; test: Cell proliferation GI50, A-431 cells (Table 6); type: cell-based
[12] = molecular target: T9, EGFR (d746-750 C797S) (Homo sapiens, UniProt P00533, C797S/DEL746-750); test: Inhibition of EGFR (d746-750 C797S) biochemical enzymatic activity (HTRF); conditions: EGFR Del19-C797S, 1 mM ATP, 1 h, room temperature, read-out: IC50 (nM) @Del19-C797S
T9 construct: purchased signalchem
Outline: as §1

[13] = BaF3 cells, EGFR DEL19-C797S, read-out: DEL19-C797S/BaF3 GI50
[14] = BaF3 cells, EGFR DEL19-T790-C797S, read-out: DEL19-T790-C797S/BaF3 GI50
[15] = BaF3 cells, EGFR L858R, read-out: L858R/BaF3 GI50
[16] = BaF3 cells, EGFR L858R-C797S, read-out: L858R-C797S/BaF3 GI50
[17] = BaF3 cells, EGFR L858R-T790-C797S, read-out: L858R-T790-C797S/BaF3 GI50
[18] = BaF3 cells, EGFR L858R-T790M, read-out: L858R-T790M/BaF3 GI50
[19] = EGFR DEL19-T790M, read-out: DEL19-T790M GI50
[20] = Mus musculus, BaF3, 72 h, BaF3 cells, EGFR DEL19-C797S, read-out: DEL19-C797S/BaF3 GI50
[21] = Mus musculus, BaF3, 72 h, BaF3 cells, EGFR DEL19-T790-C797S, read-out: DEL19-T790-C797S/BaF3 GI50
[22] = Mus musculus, BaF3, 72 h, BaF3 cells, EGFR L858R, read-out: L858R/BaF3 GI50
[23] = Mus musculus, BaF3, 72 h, BaF3 cells, EGFR L858R-C797S, read-out: L858R-C797S/BaF3 GI50
[24] = Mus musculus, BaF3, 72 h, BaF3 cells, EGFR L858R-T790-C797S, read-out: L858R-T790-C797S/BaF3 GI50
[25] = Mus musculus, BaF3, 72 h, BaF3 cells, EGFR L858R-T790M, read-out: L858R-T790M/BaF3 GI50
[26] = Mus musculus, BaF3, 72 h, EGFR DEL19-T790M, read-out: DEL19-T790M GI50
[27] = Homo sapiens, A-431, A-431 cells

T5 sequence (P00533 25-1210 C797S/L858R): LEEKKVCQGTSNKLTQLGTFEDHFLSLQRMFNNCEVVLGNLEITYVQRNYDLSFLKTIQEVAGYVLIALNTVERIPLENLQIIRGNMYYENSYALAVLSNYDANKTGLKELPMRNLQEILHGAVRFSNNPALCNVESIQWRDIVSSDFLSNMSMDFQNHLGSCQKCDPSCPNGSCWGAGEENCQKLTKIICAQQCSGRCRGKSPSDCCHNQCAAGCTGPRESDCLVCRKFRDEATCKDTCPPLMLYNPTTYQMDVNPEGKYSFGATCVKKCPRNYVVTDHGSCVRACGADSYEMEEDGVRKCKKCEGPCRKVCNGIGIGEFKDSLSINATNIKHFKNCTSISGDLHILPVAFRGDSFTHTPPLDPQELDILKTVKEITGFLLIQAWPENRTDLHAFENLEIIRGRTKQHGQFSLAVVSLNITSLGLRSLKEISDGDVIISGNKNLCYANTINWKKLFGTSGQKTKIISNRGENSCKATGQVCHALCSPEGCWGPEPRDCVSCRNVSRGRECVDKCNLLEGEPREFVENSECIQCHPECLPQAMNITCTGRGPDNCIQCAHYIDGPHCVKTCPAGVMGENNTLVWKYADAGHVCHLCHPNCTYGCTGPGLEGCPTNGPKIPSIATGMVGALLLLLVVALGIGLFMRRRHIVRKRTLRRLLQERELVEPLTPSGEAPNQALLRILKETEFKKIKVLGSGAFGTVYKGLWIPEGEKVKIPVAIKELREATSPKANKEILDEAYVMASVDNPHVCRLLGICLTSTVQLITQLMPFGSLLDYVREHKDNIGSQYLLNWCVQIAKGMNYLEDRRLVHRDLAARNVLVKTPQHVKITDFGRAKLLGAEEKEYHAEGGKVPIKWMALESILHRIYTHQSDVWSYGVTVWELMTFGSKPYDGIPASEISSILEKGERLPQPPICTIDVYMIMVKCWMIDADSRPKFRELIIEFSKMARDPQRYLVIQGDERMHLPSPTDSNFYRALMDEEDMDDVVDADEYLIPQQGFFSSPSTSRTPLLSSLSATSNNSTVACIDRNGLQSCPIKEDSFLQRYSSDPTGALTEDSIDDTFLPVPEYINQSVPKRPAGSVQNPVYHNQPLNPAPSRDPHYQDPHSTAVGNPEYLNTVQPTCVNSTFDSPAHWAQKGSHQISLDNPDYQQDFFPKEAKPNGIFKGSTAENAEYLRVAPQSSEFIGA
T4 sequence (P00533 with tags, fused parts or gaps DEL746-750/T790M limits assumed): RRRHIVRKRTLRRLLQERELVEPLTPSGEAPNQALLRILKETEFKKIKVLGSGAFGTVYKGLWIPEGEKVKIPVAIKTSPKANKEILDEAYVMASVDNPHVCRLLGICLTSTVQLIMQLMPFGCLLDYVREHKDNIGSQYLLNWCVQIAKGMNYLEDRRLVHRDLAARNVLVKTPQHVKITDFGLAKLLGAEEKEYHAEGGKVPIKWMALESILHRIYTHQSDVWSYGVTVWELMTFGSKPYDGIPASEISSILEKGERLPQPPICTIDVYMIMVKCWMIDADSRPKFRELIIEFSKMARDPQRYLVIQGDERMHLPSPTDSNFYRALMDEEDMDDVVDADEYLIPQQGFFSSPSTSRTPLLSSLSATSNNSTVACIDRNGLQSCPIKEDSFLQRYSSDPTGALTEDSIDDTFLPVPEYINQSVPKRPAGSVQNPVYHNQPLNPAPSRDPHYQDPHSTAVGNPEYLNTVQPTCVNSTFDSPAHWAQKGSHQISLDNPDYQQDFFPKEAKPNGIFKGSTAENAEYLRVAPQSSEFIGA
T6 sequence (P00533 25-1210 T790M/C797S/L858R): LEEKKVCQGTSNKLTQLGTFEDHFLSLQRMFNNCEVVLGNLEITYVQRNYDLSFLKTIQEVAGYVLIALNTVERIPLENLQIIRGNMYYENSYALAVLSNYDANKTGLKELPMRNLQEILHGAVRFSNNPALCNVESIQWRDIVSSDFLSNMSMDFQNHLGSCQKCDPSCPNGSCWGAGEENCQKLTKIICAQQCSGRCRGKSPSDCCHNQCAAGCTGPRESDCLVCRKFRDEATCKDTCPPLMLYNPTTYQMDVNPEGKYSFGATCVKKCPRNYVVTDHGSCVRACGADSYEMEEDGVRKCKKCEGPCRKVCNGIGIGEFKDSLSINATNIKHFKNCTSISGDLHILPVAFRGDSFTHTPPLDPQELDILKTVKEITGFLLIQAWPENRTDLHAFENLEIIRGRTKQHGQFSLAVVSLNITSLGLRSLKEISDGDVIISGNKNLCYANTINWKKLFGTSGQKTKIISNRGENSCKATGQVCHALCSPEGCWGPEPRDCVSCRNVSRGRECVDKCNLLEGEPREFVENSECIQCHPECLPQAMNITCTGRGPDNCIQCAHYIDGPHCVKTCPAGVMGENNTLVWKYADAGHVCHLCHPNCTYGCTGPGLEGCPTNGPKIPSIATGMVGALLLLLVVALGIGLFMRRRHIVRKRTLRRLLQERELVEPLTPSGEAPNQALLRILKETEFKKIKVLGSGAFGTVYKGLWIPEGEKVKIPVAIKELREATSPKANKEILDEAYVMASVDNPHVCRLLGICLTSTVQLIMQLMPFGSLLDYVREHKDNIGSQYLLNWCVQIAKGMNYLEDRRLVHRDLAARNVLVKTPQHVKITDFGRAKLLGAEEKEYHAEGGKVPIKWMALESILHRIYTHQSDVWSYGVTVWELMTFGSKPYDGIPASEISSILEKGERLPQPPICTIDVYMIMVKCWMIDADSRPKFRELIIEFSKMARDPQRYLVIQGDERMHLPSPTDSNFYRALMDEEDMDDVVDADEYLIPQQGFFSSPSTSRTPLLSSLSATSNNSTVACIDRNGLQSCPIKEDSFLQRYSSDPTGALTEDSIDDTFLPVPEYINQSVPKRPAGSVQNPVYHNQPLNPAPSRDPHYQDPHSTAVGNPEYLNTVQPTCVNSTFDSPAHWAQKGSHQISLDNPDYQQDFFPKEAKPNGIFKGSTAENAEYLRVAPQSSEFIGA
T9 sequence (P00533 with tags, fused parts or gaps DEL746-750/C797S limits assumed): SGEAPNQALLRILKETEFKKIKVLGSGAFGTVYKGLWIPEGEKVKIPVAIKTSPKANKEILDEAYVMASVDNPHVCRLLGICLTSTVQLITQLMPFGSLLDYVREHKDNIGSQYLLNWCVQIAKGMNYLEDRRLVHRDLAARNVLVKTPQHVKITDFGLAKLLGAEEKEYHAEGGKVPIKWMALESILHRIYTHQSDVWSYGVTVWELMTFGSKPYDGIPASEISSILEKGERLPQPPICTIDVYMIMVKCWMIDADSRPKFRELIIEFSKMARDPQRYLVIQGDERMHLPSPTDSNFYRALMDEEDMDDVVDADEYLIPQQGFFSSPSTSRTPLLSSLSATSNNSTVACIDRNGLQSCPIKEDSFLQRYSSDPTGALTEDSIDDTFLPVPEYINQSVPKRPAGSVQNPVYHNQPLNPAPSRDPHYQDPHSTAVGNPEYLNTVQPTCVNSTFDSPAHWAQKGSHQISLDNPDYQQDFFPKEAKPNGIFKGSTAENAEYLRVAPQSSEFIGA
T3 sequence (P00533 with tags, fused parts or gaps DEL746-750 limits assumed): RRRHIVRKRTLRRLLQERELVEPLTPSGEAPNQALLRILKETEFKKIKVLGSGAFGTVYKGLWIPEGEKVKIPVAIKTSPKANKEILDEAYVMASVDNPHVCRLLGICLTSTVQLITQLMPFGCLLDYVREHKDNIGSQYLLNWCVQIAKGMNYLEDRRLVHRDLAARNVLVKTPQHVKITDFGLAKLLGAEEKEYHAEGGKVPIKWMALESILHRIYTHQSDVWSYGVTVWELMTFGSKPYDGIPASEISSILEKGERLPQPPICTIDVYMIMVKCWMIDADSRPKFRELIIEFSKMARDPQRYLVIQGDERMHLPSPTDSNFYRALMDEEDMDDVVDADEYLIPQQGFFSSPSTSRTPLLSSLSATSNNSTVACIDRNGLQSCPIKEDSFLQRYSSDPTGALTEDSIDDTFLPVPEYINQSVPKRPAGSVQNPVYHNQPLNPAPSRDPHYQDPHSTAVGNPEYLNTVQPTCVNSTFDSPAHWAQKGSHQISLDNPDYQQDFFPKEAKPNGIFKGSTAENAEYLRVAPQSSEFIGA
T8 sequence (P00533 with tags, fused parts or gaps DEL746-750/T790M/C797S limits assumed): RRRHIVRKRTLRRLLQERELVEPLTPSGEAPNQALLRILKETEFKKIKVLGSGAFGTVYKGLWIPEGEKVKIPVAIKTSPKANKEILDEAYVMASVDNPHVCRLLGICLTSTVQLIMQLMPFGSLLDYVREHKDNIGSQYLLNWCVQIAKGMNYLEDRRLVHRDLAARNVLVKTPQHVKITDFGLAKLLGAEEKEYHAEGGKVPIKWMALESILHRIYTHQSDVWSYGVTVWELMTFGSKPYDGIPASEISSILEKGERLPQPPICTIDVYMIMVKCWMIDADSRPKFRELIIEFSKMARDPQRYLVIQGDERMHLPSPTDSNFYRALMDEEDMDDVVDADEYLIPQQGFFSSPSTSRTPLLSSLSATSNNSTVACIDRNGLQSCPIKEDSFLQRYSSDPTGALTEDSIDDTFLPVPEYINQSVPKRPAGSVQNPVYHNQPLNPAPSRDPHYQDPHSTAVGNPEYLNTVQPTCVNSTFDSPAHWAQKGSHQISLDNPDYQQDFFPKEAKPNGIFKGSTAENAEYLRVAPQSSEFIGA

SMILES | IC50 [1] [nM] | IC50 [2] [nM] | GI50 [3, 13] [nM] | GI50 [3, 14] [nM] | GI50 [3, 15] [nM] | GI50 [3, 16] [nM] | GI50 [3, 17] [nM] | GI50 [3, 18] [nM] | GI50 [3, 19] [nM] | GI50 [4] [nM] | IC50 [5] [nM] | IC50 [6] [nM] | IC50 [7] [nM] | IC50 [8] [nM] | IC50 [9] [nM] | IC50 [10] [nM] | GI50 ([11]; A-431 cells) [nM] | IC50 [12] [nM] | GI50 [11, 27] [nM] | also measured
CCN1CCN(c2ccc3nc4n(c3c2)C23CCC(CN(CCOc5c(cnn5C)-c5cc(cn(C)c5=O)C(=O)N4)C2)C3)CC1 (single isomer, unassigned) [Example A107B] | 20 | 2.7 | 0.63 | 1.1 | 1 | 2.4 | 1.5 | 4.1 | 1.5 | 5.2 | 1.8 | 1.8 | 1.9 | 2.1 | 3 | 2 | 267 | 0.79 | – | –
C[C@@H]1CCCOc2c(cnn2C)-c2cc(cn(C)c2=O)C(=O)Nc2nc3ccc(N4CCN(C5CC5)CC4)cc3n2C1 [Example A48] | 2250 | 5 | – | – | – | – | – | – | – | – | 3.1 | 2.8 | 28 | 4.4 | 40 | 3.1 | – | 2.1 | 573 | GI50 [3, 20]: 9.4 nM; GI50 [3, 21]: 48 nM; GI50 [3, 22]: 20 nM; GI50 [3, 23]: 26 nM; GI50 [3, 24]: 21 nM; GI50 [3, 25]: 94 nM; GI50 [3, 26]: 53 nM; GI50 ([4]; Homo sapiens, PC-9, 72 h): 38 nM
Cn1ncc2c1OCCN1CC3CCC(C3)(C1)n1c(nc3ccc(N4CCC(N5CC(F)C5)CC4)cc31)NC(=O)c1cc-2c(=O)n(C)c1 (single isomer, unassigned) [Example A87A] | > 5000 | > 5000 | 61 | 238 | 178 | 124 | 233 | 311 | 192 | 452 | 842 | > 5000 | > 5000 | > 5000 | 4480 | 4000 | 382 | 995 | – | –
C[C@@H]1CCCOc2c(cnn2C)-c2cc(cn(C)c2=O)C(=O)Nc2nc3ccc(N4CCN(C5COC5)CC4)cc3n2C1 [Example A39] | 1520 | 14 | – | – | – | – | – | – | – | – | 5.9 | 5 | 30 | 8.2 | 74 | 5.1 | – | 2.8 | 290 | GI50 [3, 20]: 1.9 nM; GI50 [3, 21]: 4.7 nM; GI50 [3, 22]: 5.2 nM; GI50 [3, 23]: 6.9 nM; GI50 [3, 24]: 5.4 nM; GI50 [3, 25]: 16 nM; GI50 [3, 26]: 8.4 nM; GI50 ([4]; Homo sapiens, PC-9, 72 h): 7.6 nM
CN1CCN(C2CN(c3ccc4nc5n(c4c3)C34CCC(CN(CCOc6c(cnn6C)-c6cc(cn(C)c6=O)C(=O)N5)C3)C4)C2)CC1 (single isomer, unassigned) [Example A70B] | 19 | 1.8 | 0.66 | 1 | 0.76 | 2.7 | 0.91 | 5.9 | 1.6 | 2.7 | 1.6 | 1.9 | 3.6 | 2.1 | 4.7 | 2.1 | 744 | 0.91 | – | –
CN(C)CC1(F)CN(c2ccc3nc4n(c3c2)C23CCC(CN(CCOc5c(cnn5C)-c5cc(cn(C)c5=O)C(=O)N4)C2)C3)C1 (single isomer, unassigned) [Example A72B] | 5.2 | 1.8 | 0.51 | 0.58 | 0.88 | 1.9 | 0.51 | 1.6 | 0.51 | 2.1 | 1.8 | 2.4 | 2 | 1.3 | 2.4 | 2.2 | – | 0.92 | 731 | –
CN1CCC2(CN(c3ccc4nc5n(c4c3)C34CCC(CN(CCOc6c(cnn6C)-c6cc(cn(C)c6=O)C(=O)N5)C3)C4)C2)C(F)(F)C1 (single isomer, unassigned) [Example A91B] | 110 | 12 | 0.75 | 2.2 | 2.6 | 3.9 | 4.6 | 11 | 3.1 | 25 | 4 | 9.7 | 8 | 6.1 | 11 | 6.7 | 1690 | 2.9 | – | –
